Measurements as given in patent US20090169490A1, “COMPOSITION AND METHOD FOR WEIGHT LOSS” (Guangzhou Konzern Pharmaceutical Co., Ltd, priority 2007, published 2009).

Columns and labels:
[1] = system: Diet-Induced Obesity Rat Model; assay: Weight loss experiments in diet-induced obesity rat model; format: in vivo; settings: for difference to control group E (weight loss effect): SPSS12.0 analysis, p<0.01, versus control group E on normal feed; for average weight variation (g) after / average weight variation (g) before: obese male rats; for average weight variation (g) before: n=10 per group
Description: Male weaned rats (each weighs 50 g) divided into 5 groups with each group 10 rats.
The rats are orally administrated L-carnitine tartrate (Group A), L-hydroxy citric acid (Group B), L-carnitine tartrate and L-hydroxy citric acid (Group C), L-carnitine tartrate and L-hydroxy citric acid and asiaticosides (Group D), respectively. For comparison, a control group E is also set herewith. The oral administration dosage is 5 times that for human (kg/day). The rats are fed with feed comprising one of the active components set forth above for continuous 30 days.
Feed preparation: the feed comprises (a) basic feed consisting of 20 wt % of barley meal, 10 wt % of dehydrated vegetables, 20 wt % of pulse flour, 1 wt % of yeast, 5 wt % of bone dust, 16 wt % of cornmeal, 16 wt % of wheat skin, 10 wt % of fish meal and 2 wt % of salt, and (b) nutritive feed selected from the group consisting of powdered milk, lard, egg and soybean sprout. 10 g of powdered milk, 10 g of lard, one egg and 250 g of soybean sprout are added per 100 g of basic feed.
In the first and second week, each rat is fed 13 g of feed per day, with an increase in the amount of the feed of 2 g every week until the sixth week ([…]). The rats are fed twice a day. After the rats are fed with the high-fat, high-nutrition feed above for 45 days, the weight of the rat fed with such feed is nearly two times that of the rat in the control group fed with normal feed (the difference may be more than 100 g).
After the establishment of the rat model, rats in different groups are orally administrated L-carnitine tartrate (Group A), L-hydroxy citric acid (Group B), L-carnitine tartrate and L-hydroxy citric acid (Group C), L-carnitine tartrate and L-hydroxy citric acid and asiaticosides (Group D). The components are blended in the feed. No additional component is added to the normal feed fed the control group.
The experiment data is analyzed by software SPSS12.0 edition, and the result are shown as below: […]

[2] = cited from earlier work
[3] = cited from earlier work; remark: listed apart in the source
[4] = after minus before, 30 days oral administration in feed, dosage 5 times that for human
[5] = fat pad around testicle and kidney, after 30 days oral administration in feed, dosage 5 times that for human
[6] = fat pad around testicle and kidney, after minus before, 30 days oral administration in feed
[7] = fat pad around testicle and kidney, before the 30 days of oral administration in feed (baseline)
[8] = after 30 days oral administration in feed, dosage 5 times that for human
[9] = before the 30 days of oral administration in feed (baseline)

| SMILES | difference to control group E (weight loss effect) [1] | average weight variation (g) variation [1, 4] [g] | average fat pad weight [1, 5] [g] | average fat pad weight [1, 6] [g] | average fat pad weight [1, 7] [g] | average weight variation (g) after [1, 8] [g] | average weight variation (g) before [1, 9] [g] | average percentage body fat variation (g) after [1, 5] [g] | average percentage body fat variation (g) variation [1, 6] [g] | average percentage body fat variation (g) before [1, 7] [g] | in vivo half-life [2] [h] | solubility in water [3] |
| --- | --- | --- | --- | --- | --- | --- | --- | --- | --- | --- | --- | --- |
| C[N+](C)(C)C[C@H](O)CC(=O)[O-].O=C(O)C(O)C(O)C(=O)O [Group A, L-carnitine tartrate] | significant | -5 | 3.93 | -2.3 | 6.23 | 98.28 | 103.28 | – | – | – | – | – |
| O=C(O)CC(O)(C(=O)O)C(O)C(=O)O [Group B, L-hydroxy citric acid] | significant | -5.8 | – | – | – | 97.32 | 103.12 | 3.81 | -2.4 | 6.21 | – | – |
| C[N+](C)(C)C[C@H](O)CC(=O)[O-] [L-carnitine] | – | – | – | – | – | – | – | – | – | – | 8.4 | easy to dissolve in water |
